Values of other authors in US20040048871A1, “Use of high dose intravenous methotrexate, with leucovorin rescue, to treat early multiple sclerosis and other diseases of the central nervous system” (priority 2002, published 2004).
Where two headings read alike, the source gives them in different places.

What was measured:
[1] = 2.5 g/m^2 sporadically via IV infusion, with leucovorin rescue
[2] = 8 g/m^2, four hour IV infusion, with leucovorin rescue
[3] = for crossing of the blood brain barrier (BBB): in vivo
[4] = in vivo
[5] = low-dose methotrexate 7.5 mg/week, orally

CN(Cc1cnc2nc(N)nc(N)c2n1)c1ccc(C(=O)N[C@@H](CCC(=O)O)C(=O)O)cc1 [methotrexate]
toxicity [1]: no significant toxicity | results in treating CNS lymphomas [2]: promising results | toxicity [2]: low toxicity | effect on the course of progressive MS [5]: impact the course of progressive MS | toxicity [5]: minimal toxicity | upper extremity strength in MS patients (oral methotrexate treatments): mild improvement | serum level sufficient to cross the BBB in cytotoxic amounts ([3]; administered orally): not sufficient to cross the BBB in cytotoxic amounts

Nc1nc2c(c(=O)[nH]1)N(C=O)C(CNc1ccc(C(=O)N[C@@H](CCC(=O)O)C(=O)O)cc1)CN2 (some centres unmarked) [leucovorin]
crossing of the blood brain barrier (BBB) [3]: does not penetrate the BBB

O=C1c2c(O)ccc(O)c2C(=O)c2c(NCCNCCO)ccc(NCCNCCO)c21 [mitoxantrone]
crossing of the blood brain barrier (BBB) [3]: do not cross the blood brain barrier

O=P1(N(CCCl)CCCl)NCCCO1 (centres unmarked) [cyclophosphamide]
efficacy against the progression of MS [4]: some efficacy | crossing of the blood brain barrier (BBB) [3]: do not cross the blood brain barrier
